The source made the active and inactive calls.
Columns and labels:
Type in all cases: functional
[1] = biological target: T1, Heat shock factor protein 1 (Mus musculus, UniProt P38532); assay: inhibition of MG132-induced HSE-luciferase signal, confirmation, cell-based, NIH3T3, luminescence, dose retest (AID 2382);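 further: NIH3T3 fibroblasts with HSF1-driven luciferase reporter stressed by proteasome inhibitor MG132; luminescence from HSF1-driven luciferase expression after 8 hours of MG132 stress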
T1 sequence (P38532 whole entry): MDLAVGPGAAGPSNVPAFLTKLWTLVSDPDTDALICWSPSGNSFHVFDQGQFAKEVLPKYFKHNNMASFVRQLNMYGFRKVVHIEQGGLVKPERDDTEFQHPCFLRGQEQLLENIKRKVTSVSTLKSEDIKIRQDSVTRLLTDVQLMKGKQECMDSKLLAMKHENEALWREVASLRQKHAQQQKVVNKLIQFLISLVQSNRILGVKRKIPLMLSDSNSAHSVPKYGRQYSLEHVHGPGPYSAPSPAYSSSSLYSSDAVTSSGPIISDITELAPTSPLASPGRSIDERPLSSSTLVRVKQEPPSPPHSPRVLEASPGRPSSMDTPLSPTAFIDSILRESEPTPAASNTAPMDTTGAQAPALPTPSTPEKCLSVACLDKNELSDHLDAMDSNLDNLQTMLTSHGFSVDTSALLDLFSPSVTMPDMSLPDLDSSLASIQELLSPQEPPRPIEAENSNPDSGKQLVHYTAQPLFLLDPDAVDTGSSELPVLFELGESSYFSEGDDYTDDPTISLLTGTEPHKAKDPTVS

[2] = biological target: T1, Heat shock factor protein 1; assay: HSF1 potentiators in luciferase reporter cells, confirmation, cell-based, NIH3T3, luminescence, dose retest (AID 435004);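 further: stress induced by proteasome inhibitor MG132 added 30 min after compound; luciferase reporter driven by HSF1 response element in NIH3T3 cells; actives raise luminescence as potentiators of the MG132 stress response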
[3] = biological target: T2, Sentrin-specific protease 7 (Homo sapiens, UniProt Q9BQF6); assay: SENP7 protease inhibitors, SAR follow-up, biochemical, luminescence (AID 504497)
T2 sequence (Q9BQF6 whole entry): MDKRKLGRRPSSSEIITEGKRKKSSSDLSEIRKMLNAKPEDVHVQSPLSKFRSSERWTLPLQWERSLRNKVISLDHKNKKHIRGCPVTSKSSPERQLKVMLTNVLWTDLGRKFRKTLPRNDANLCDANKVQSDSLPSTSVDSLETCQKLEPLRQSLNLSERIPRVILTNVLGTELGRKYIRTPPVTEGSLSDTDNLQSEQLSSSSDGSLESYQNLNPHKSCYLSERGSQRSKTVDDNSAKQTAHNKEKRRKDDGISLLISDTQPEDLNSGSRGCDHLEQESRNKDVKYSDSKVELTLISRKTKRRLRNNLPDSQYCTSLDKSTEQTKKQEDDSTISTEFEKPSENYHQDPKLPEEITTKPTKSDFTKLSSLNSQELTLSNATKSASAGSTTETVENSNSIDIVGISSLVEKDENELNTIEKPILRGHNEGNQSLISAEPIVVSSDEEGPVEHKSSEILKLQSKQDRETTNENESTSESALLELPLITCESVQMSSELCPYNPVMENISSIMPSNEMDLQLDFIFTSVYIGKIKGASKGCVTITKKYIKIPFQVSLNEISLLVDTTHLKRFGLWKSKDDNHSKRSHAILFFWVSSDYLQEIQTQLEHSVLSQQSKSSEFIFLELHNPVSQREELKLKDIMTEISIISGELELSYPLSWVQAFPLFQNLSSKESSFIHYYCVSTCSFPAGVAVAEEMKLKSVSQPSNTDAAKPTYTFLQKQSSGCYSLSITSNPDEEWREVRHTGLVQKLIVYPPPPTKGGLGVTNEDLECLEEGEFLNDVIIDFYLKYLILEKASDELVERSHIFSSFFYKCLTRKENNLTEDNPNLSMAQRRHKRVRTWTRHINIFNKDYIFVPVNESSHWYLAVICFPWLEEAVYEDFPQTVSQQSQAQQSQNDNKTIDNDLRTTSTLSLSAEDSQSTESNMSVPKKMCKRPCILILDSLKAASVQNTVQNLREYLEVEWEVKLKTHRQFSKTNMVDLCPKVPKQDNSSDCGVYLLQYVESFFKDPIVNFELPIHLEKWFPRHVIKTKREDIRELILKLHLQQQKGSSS

[4] = biological target: T3, Apoptotic protease-activating factor 1 (Homo sapiens, UniProt O14727)
T3 sequence (O14727 whole entry): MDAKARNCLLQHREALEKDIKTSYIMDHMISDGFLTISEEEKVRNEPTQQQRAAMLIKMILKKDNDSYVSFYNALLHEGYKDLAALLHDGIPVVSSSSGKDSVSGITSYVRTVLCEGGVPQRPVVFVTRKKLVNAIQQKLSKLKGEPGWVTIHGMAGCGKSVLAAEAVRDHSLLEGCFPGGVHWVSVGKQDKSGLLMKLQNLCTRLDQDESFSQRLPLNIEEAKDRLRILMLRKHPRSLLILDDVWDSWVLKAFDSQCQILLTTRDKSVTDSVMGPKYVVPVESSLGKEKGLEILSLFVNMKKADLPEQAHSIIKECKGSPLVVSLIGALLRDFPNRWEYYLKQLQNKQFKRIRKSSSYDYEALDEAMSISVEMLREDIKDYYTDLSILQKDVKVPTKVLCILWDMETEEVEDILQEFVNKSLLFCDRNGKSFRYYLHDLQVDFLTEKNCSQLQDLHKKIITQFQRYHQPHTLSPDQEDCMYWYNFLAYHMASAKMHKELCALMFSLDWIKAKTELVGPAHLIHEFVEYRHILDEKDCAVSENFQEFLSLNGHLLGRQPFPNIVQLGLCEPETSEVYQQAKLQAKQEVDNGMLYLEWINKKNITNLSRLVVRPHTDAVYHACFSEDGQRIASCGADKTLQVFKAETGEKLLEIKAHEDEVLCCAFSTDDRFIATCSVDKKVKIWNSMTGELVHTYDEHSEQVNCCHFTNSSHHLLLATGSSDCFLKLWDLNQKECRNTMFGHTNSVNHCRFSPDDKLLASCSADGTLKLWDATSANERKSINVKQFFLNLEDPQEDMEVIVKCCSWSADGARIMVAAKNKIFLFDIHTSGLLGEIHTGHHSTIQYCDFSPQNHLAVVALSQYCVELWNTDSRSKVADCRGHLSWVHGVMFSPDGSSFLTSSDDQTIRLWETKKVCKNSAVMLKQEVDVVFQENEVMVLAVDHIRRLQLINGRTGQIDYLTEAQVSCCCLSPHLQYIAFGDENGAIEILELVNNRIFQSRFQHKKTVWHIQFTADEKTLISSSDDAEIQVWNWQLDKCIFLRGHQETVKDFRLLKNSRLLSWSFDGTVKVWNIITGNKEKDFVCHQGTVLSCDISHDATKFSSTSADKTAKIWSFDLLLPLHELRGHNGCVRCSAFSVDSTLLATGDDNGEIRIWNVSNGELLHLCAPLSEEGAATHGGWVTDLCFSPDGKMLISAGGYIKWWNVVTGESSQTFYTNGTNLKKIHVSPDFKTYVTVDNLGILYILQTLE

EC50 [2] | IC50 [3] | IC50 [4] | SMILES | EC50 [1]
 |  |  | SC1=Nc2ccccc2C1 | 0.79 µM (active)
> 260 µM (inactive) | > 99 µM (inactive) | 3.62 µM (active) | CCCCNc1cc(NC(C)=O)cc2cc(OC)c(OC)cc12 | 
